Article PMC9866191, “Novel 9-Benzylaminoacridine Derivatives as Dual Inhibitors of Phosphodiesterase 5 and Topoisomerase II for the Treatment of Colon Cancer” (Molecules, 2023)

Assays:
[1] = biological target: T1, PDE5A (Homo sapiens, UniProt O76074); assay: Phosphodiesterase 5 HTRF cGMP assay; type: biochemical; conditions: for IC50: means ± S.D. (n = 4), read-out: PDE5 IC50; for inhibition at 10 µM: read-out: PDE5 % Inhibition at 10 μM
T1 construct: purchased BPS Bioscience, San Diego, CA, USA
Experimental: All the synthesized acridine derivatives were tested for their in vitro ability to inhibit PDE5A at a screening dose of 10 µM.
The enzyme activities of phosphodiesterase 5 (PDE5) were measured using an HTRF cGMP assay kit (Cisbio, Codolet, France). […] Afterward, the HTRF reagent (cGMP-d2 and anti-cGMP-cryptate) was added for 1 h at 25 °C, and PDE activity was assayed on an HTRF reader (Tecan Infinite F200 Pro).

[2] = tested on: 786-0; assay: NCI-60 one-dose screen; type: cell-based; conditions: Homo sapiens; 786-0, Renal Cancer panel; single dose 10^−5 M; read-out: Growth inhibition %
[3] = tested on: A498; assay: NCI-60 one-dose screen; type: cell-based; conditions: Homo sapiens; A498, Renal Cancer panel; single dose 10^−5 M; read-out: Growth inhibition %
[4] = tested on: BT-549; assay: NCI-60 one-dose screen; type: cell-based; conditions: Homo sapiens; BT-549, Breast Cancer panel; single dose 10^−5 M; read-out: Growth inhibition %
[5] = tested on: EKVX; assay: NCI-60 one-dose screen; type: cell-based; conditions: Homo sapiens, Non-small cell lung panel, single dose 10^−5 M, read-out: Growth inhibition %
[6] = tested on: HCT-116; assay: NCI-60 one-dose screen; type: cell-based; conditions: Homo sapiens, read-out: Growth inhibition %
[7] = tested on: HCT-15; assay: NCI-60 one-dose screen; type: cell-based; conditions: Homo sapiens; HCT-15, Colon Cancer panel; single dose 10^−5 M; read-out: Growth inhibition %
[8] = tested on: HL-60(TB); assay: NCI-60 one-dose screen; type: cell-based; conditions: Homo sapiens, Leukemia panel, single dose 10^−5 M, read-out: Growth inhibition %
[9] = tested on: HS 578T; assay: NCI-60 one-dose screen; type: cell-based; conditions: Homo sapiens, Breast Cancer panel, single dose 10^−5 M, read-out: Growth inhibition %
[10] = tested on: HT29; assay: NCI-60 one-dose screen; type: cell-based; conditions: Homo sapiens, HT-29; HT29, Colon Cancer panel; single dose 10^−5 M; read-out: Growth inhibition %
[11] = tested on: KM12; assay: NCI-60 one-dose screen; type: cell-based; conditions: Homo sapiens; KM12, Colon Cancer panel; single dose 10^−5 M; read-out: Growth inhibition %
[12] = tested on: M14; assay: NCI-60 one-dose screen; type: cell-based; conditions: Homo sapiens; M14, Melanoma panel; single dose 10^−5 M; read-out: Growth inhibition %
[13] = tested on: MALME-3M; assay: NCI-60 one-dose screen; type: cell-based; conditions: Homo sapiens, Melanoma panel, single dose 10^−5 M, read-out: Growth inhibition %
[14] = tested on: MCF7; assay: NCI-60 one-dose screen; type: cell-based; conditions: Homo sapiens; MCF7, Breast Cancer panel; single dose 10^−5 M; read-out: Growth inhibition %
[15] = tested on: MDA-MB-468; assay: NCI-60 one-dose screen; type: cell-based; conditions: Homo sapiens; MDA-MB-468, Breast Cancer panel; single dose 10^−5 M; read-out: Growth inhibition %
[16] = tested on: MOLT-4; assay: NCI-60 one-dose screen; type: cell-based; conditions: Homo sapiens; MOLT-4, Leukemia panel; single dose 10^−5 M; read-out: Growth inhibition %
[17] = tested on: NCI-H322M; assay: NCI-60 one-dose screen; type: cell-based; conditions: Homo sapiens, Non-small cell lung panel, single dose 10^−5 M, read-out: Growth inhibition %
[18] = tested on: NCI-H460; assay: NCI-60 one-dose screen; type: cell-based; conditions: Homo sapiens; NCI-H460, Non-small cell lung panel; single dose 10^−5 M; read-out: Growth inhibition %
[19] = tested on: NCI-H522; assay: NCI-60 one-dose screen; type: cell-based; conditions: Homo sapiens; NCI-H522, Non-small cell lung panel; single dose 10^−5 M; read-out: Growth inhibition %
[20] = tested on: PC-3; assay: NCI-60 one-dose screen; type: cell-based; conditions: Homo sapiens; PC-3, Prostate Cancer panel; single dose 10^−5 M; read-out: Growth inhibition %
[21] = tested on: RPMI-8226; assay: NCI-60 one-dose screen; type: cell-based; conditions: Homo sapiens; RPMI-8226, Leukemia panel; single dose 10^−5 M; read-out: Growth inhibition %
[22] = tested on: SF-539; assay: NCI-60 one-dose screen; type: cell-based; conditions: Homo sapiens; SF-539, CNS Cancer panel; single dose 10^−5 M; read-out: Growth inhibition %
[23] = tested on: SK-MEL-28; assay: NCI-60 one-dose screen; type: cell-based; conditions: Homo sapiens; SK-MEL-28, Melanoma panel; single dose 10^−5 M; read-out: Growth inhibition %
[24] = tested on: SR; assay: NCI-60 one-dose screen; type: cell-based; conditions: Homo sapiens, Leukemia panel, single dose 10^−5 M, read-out: Growth inhibition %
[25] = tested on: SW-620; assay: NCI-60 one-dose screen; type: cell-based; conditions: Homo sapiens; SW-620, Colon Cancer panel; single dose 10^−5 M; read-out: Growth inhibition %
[26] = tested on: TK-10; assay: NCI-60 one-dose screen; type: cell-based; conditions: Homo sapiens; TK-10, Renal Cancer panel; single dose 10^−5 M; read-out: Growth inhibition %
[27] = tested on: UACC-257; assay: NCI-60 one-dose screen; type: cell-based; conditions: Homo sapiens; UACC-257, Melanoma panel; single dose 10^−5 M; read-out: Growth inhibition %
[28] = tested on: LOX IMVI; assay: NCI-60 one-dose screen; type: cell-based; conditions: Homo sapiens, Melanoma panel, single dose 10^−5 M, read-out: Growth inhibition %
[29] = tested on: HCT-116; assay: MTT cell proliferation assay, HCT-116; conditions: for % Inhibition at 10 µM: 72 h MTT, means ± SD; for IC50: read-out: IC50 μM, 72 h MTT, means ± SD, three experiments
Experimental: In the MTT assay, 96-well culture plates were used. A total of 7 × 10^4 cells per well were seeded, and test materials were added to the cells at various concentrations [47, 48]. Human cancer and non-cancer cell lines were purchased commercially from the American Type Culture Collection (ATCC). After 72 h, the cytotoxicity of the compounds and paclitaxel (as a positive control group) was detected using the MTT method (thiazolyl blue tetrazolium bromide, Sigma-M2128). Absorbance values at 570 and 620 nm (OD = OD570–OD620) were measured using an ELISA reader (Anthos Labtec Instruments, Salzburg, Austria).

[30] = tested on: CCD-966SK; assay: MTT cell proliferation assay, CCD-966SK; conditions: CCD966SK skin fibroblast; 10 µM; 72 h MTT

| Compound | IC50 [1] [µM] | inhibition at 10 µM [1] [%] | inhibition at 10 µM [2] [%] | inhibition at 10 µM [3] [%] | inhibition at 10 µM [4] [%] | inhibition at 10 µM [5] [%] | inhibition at 10 µM [6] [%] | inhibition at 10 µM [7] [%] | inhibition at 10 µM [8] [%] | inhibition at 10 µM [9] [%] | inhibition at 10 µM [10] [%] | inhibition at 10 µM [11] [%] | inhibition at 10 µM [12] [%] | inhibition at 10 µM [13] [%] | inhibition at 10 µM [14] [%] | inhibition at 10 µM [15] [%] | inhibition at 10 µM [16] [%] | inhibition at 10 µM [17] [%] | inhibition at 10 µM [18] [%] | inhibition at 10 µM [19] [%] | further results |
| --- | --- | --- | --- | --- | --- | --- | --- | --- | --- | --- | --- | --- | --- | --- | --- | --- | --- | --- | --- | --- | --- |
| Fc1ccccc1CNc1c2ccccc2nc2ccccc12 [Compound 8, Acridin-9-yl-(2-fluorobenzyl)-amine] | 7.16 ± 2.75 | 57.5 ± 6.43 | 60 | 89.1 | 15.1 | 38.3 | 86.1 | 70.3 | 43.1 | 30.9 | 76.7 | 57.8 | 46 | 55.3 | 83.8 | 78.2 | 82.7 | 49.7 | 86.5 | 34.2 | inhibition at 10 µM [20]: 52.9%; inhibition at 10 µM [21]: 87.7%; inhibition at 10 µM [22]: 68.9%; inhibition at 10 µM [23]: 15.9%; inhibition at 10 µM [24]: 82%; inhibition at 10 µM [25]: 71.5%; inhibition at 10 µM [26]: 41.8%; inhibition at 10 µM [27]: 41.2%; inhibition at 10 µM [28]: 73.9%; % Inhibition at 10 µM [29]: 66.44 ± 0.80%; IC50 [29]: 3.05 ± 0.15 µM; % Inhibition at 10 µM [30]: 42.52 ± 2.0% |
| Fc1ccc(CNc2c3ccccc3nc3ccccc23)c(F)c1 [Compound 21, Acridin-9-yl-(2,4-difluorobenzyl)-amine] | > 10 | 31.9 ± 8.01 | 52.4 | 104 | 17.2 | 54.5 | 85.8 | 71.3 | 41.7 | 24.6 | 78.2 | 40 | 44.7 | 30.5 | 89.8 | 104 | 76.2 | 50.8 | 80 | 57.7 | inhibition at 10 µM [20]: 31.1%; inhibition at 10 µM [21]: 71.7%; inhibition at 10 µM [22]: 67.6%; inhibition at 10 µM [23]: 9.61%; inhibition at 10 µM [24]: 74.8%; inhibition at 10 µM [25]: 70.2%; inhibition at 10 µM [26]: 39%; inhibition at 10 µM [27]: 31.1%; inhibition at 10 µM [28]: 78.5%; % Inhibition at 10 µM [29]: 67.37 ± 0.67%; IC50 [29]: 3.95 ± 0.82 µM; % Inhibition at 10 µM [30]: 30.94 ± 0.86% |
| Clc1ccc(CNc2c3ccccc3nc3ccccc23)cc1 [Compound 13, Acridin-9-yl-(4-chlorobenzyl)-amine] | > 10 | 45.3 ± 3.99 | 64.7 | 79.2 | 29.1 | 37.4 | 84.3 | 76.7 | 55.3 | 46.2 | 85 | 64.4 | 46.7 | 60.4 | 84 | 70.4 | 95.4 | 45.9 | 83.6 | 33.5 | inhibition at 10 µM [20]: 61.3%; inhibition at 10 µM [21]: 92%; inhibition at 10 µM [22]: 69.7%; inhibition at 10 µM [23]: 19.7%; inhibition at 10 µM [24]: 97.7%; inhibition at 10 µM [25]: 69%; inhibition at 10 µM [26]: 50.3%; inhibition at 10 µM [27]: 23.9%; inhibition at 10 µM [28]: 77%; % Inhibition at 10 µM [29]: 11.67 ± 4.59%; % Inhibition at 10 µM [30]: 2.73 ± 4.11% |
| Cc1ccc(CNc2c3ccccc3nc3ccccc23)cc1 [Compound 4, Acridin-9-yl-(4-methylbenzyl)-amine] | 4.44 ± 1.82 | 74 ± 12.4 | 74.6 | 92.4 | 28.7 | 62.1 | 88 | 84.4 | 74.5 | 61.5 | 89.7 | 76.5 | 72 | 83.8 | 91 | 92.8 | 95.7 | 60.2 | 91.2 | 51 | inhibition at 10 µM [20]: 75.7%; inhibition at 10 µM [21]: 111%; inhibition at 10 µM [22]: 81.9%; inhibition at 10 µM [23]: 40.5%; inhibition at 10 µM [24]: 101%; inhibition at 10 µM [25]: 79.8%; inhibition at 10 µM [26]: 64.2%; inhibition at 10 µM [27]: 60.6%; inhibition at 10 µM [28]: 88.2%; % Inhibition at 10 µM [29]: 69.31 ± 2.09%; IC50 [29]: 3.59 ± 0.27 µM; % Inhibition at 10 µM [30]: 38.07 ± 5.90% |
